{"source": "patent US20160264593A1", "about": "(priority 2013, published 2016)", "key": {"PP2A [1]": {"test_system": "PP2A", "assay": "PP2A activity in mouse livers after IP dosing (PP2A immunoprecipitation phosphatase assay, malachite green)", "assay_type": "in vivo, Balb/c mice", "conditions": "liver", "experimental": "(§1) Coomassie (Bradford) Protein Assay Kit (Pierce); PP2A Immunoprecipitation Phosphatase Assay Kit (Millipore); Lysate preparation for low endogenous phosphate: 20 mM imidazole-HCl, 2 mM EDTA, 2 mM EGTA, 1 mM PMSF, 1 mM benzamidine, 10 ug/ml each of aprotinin, leupeptin, antipain, soybean trypsin inhibitor; Normal Mouse IgG (Millipore); Okadaic acid (OA) (Tocris); DMSO (Sigma).\n(§2) • Species: Mus Musculus • Strain: Balb/c mice • Age: 6-8 weeks • Sex: female • Body weight: 18-22 g • Vendor: Shanghai Laboratory Animal Center, Shanghai, China; • Number of animals: 66 Balb/c mice plus spare\n(§3) The mice were kept in laminar flow rooms at constant temperature and humidity with 4 animals in each cage. • Temperature: 20-25 • Humidity: 40-70%. • Light cycle: 12 hours light and 12 hours dark. • Cages: Made of polycarbonate. The size is 29 cm×17.5 cm×12 cm (L×w×H). The bedding material is wood debris, which is changed once per week. • Diet: Animals had free access to irradiation sterilized dry granule food during the entire study period. • Water: Animals had free access to sterile drinking water. • Cage identification: the identification labels for each cage contained the following information: number of animals, sex, strain, date arrival, treatment, study number, group number, and the starting date of the treatment. • Animal identification: Animals were marked by ear punch.\n(§4) All the procedures related to animal handling, care, and the treatment in this study were performed according to guidelines approved by the Institutional Animal Care and Use Committee (IACUC) of WuXi AppTec (Shanghai), following the guidance of the Association for Assessment and Accreditation of Laboratory Animal Care (AAALAC). At the time of routine monitoring, the animals were checked and recorded for any effects of tumor growth on normal behavior such as mobility, food and water consumption (by looking only), body weight gain/loss, eye/hair matting and any other abnormal effect.\n(§5) 1. Proper amount of the compounds were weighed. 2. The compounds were dissolved in 4% sterile sodium bicarbonate. 3. All of the compounds should be well dissolved and clear. 4. The compounds should be kept cold once in solution and injected within an hour. 5. The mice were administered intraperitoneally according to their body weights, 20 g mouse was treated with 0.2 ml compound solution. 6. Mice were treated with vehicle and compounds according to Table 1. 7. 3 hours after the dose, 3 mice from each group were euthanized by\n(§6) CO2 exposure, and the brains and left lobe of livers were taken and snap-frozen in liquid nitrogen immediately. 6 hours after the dose, the other 3 mice from each group were euthanized by CO2 exposure, and the brains and left lobe of livers were taken and snap-frozen in liquid nitrogen immediately.\n(§7) Preparation of malachite green phosphate detection solution Added […] of Solution B to each 1 mL of Solution A, kept at room temperature during use. […] of mixed solution AB is used per assay well.\n(§8) Diluted 125 mL Phosphate Standard (Solution C) with 1125 mL of distilled water to make 0.1 mM working solution. The solution was used to prepare a phosphate standard curve as described in the table below.\n(§9) 1. 25 μL of each phosphate standards was transferred to wells of microliter plate. 2. Added 100 μL of Malachite Green Solution AB. Mixed carefully without creating bubbles. 3. Cultured for 15 minutes at RT. 4. Measured absorbance at a wavelength between 650 nm in a microliter plate reader.\n(§10) 1. Dissolved 1 mg Threonine Phosphopeptide (Catalog #12-219) in 1.10 mL of distilled water to prepare a 1 mM solution. 2. Aliquot peptide solution and stored at ˜20° C. as necessary.\n(§11) 1. Mouse brain or liver was homogenized using lysis buffer (25 g/L), centrifuged at 12000 g for 10 minutes at […], and the supernatants were collected. 2. The protein was quantitated, and 240 μg of mouse brain or liver lysate was taken to assay phosphatase activity. 3. […]"}, "PP2A [2]": {"test_system": "PP2A", "assay": "PP2A activity in mouse brains after IP dosing (PP2A immunoprecipitation phosphatase assay, malachite green)", "assay_type": "in vivo, Balb/c mice", "parameters": "Average Conc. (group of 3 mice): unit not given here", "conditions": "brain", "experimental": "as §1, §2, §3, §4, §5, §6, §7, §8, §9, §10, §11"}, "[3]": {"conditions": "high dose IP (mpk: 100 1.5, 113 2.2, 151 1.6, 157 2.0), 3 h"}, "[4]": {"conditions": "high dose IP (mpk: 100 1.5, 113 2.2, 151 1.6, 157 2.0), 6 h"}, "[5]": {"conditions": "low dose IP (mpk: 100 0.75, 113 1.1, 151 0.8, 153 0.85, 157 1.0), 3 h"}, "[6]": {"conditions": "low dose IP (mpk: 100 0.75, 113 1.1, 151 0.8, 153 0.85, 157 1.0), 6 h"}, "[7]": {"conditions": "high dose IP (mpk: 100 1.5, 113 2.2, 151 1.6, 153 1.7, 157 2.0), 3 h"}, "[8]": {"conditions": "high dose IP (mpk: 100 1.5, 113 2.2, 151 1.6, 153 1.7, 157 2.0), 6 h"}}, "note": "Where “and” joins values, the source holds several entries; their conditions need not be identical. Equal entries are not always repeated."}
{"smiles": "COC(=O)C1C2CCC(O2)C1C(=O)N1CCN(C)CC1", "note": "(centres unmarked) [Compound 151]", "values": [{"measurement": "Average Conc. (group of 3 mice)", "setting": "PP2A [1]; [3]", "value": 472.47}, {"measurement": "Average Relative Activity (group, vehicle = 100)", "setting": "PP2A [1]; [3]", "value": 112.5}, {"measurement": "Conc. (phosphate, single reading, per mouse)", "setting": "PP2A [1]; [3]", "value": "387.96 and 418.01 and 367.5 and 404.51 and 757.23 and 772.47"}, {"measurement": "Mean Conc. (per mouse)", "setting": "PP2A [1]; [3]", "value": "402.99 and 386.01 and 764.85"}, {"measurement": "Mean Conc. less IgG blank (per mouse)", "setting": "PP2A [1]; [3]", "value": "357.51 and 340.53 and 719.38"}, {"measurement": "Relative Conc. (per mouse, to vehicle)", "setting": "PP2A [1]; [3]", "value": "0.85 and 0.81 and 1.71"}, {"measurement": "Relative PP2A Activity (per mouse, vehicle = 100)", "setting": "PP2A [1]; [3]", "value": "85.13 and 81.08 and 171.29"}, {"measurement": "Average Conc. (group of 3 mice)", "setting": "PP2A [1]; [4]", "value": 241.1}, {"measurement": "Average Relative Activity (group, vehicle = 100)", "setting": "PP2A [1]; [4]", "value": 54.24}, {"measurement": "Conc. (phosphate, single reading, per mouse)", "setting": "PP2A [1]; [4]", "value": "320.03 and 325.26 and 287.37 and 311.32 and 231.2 and 244.26"}, {"measurement": "Mean Conc. (per mouse)", "setting": "PP2A [1]; [4]", "value": "322.65 and 299.35 and 237.73"}, {"measurement": "Mean Conc. less IgG blank (per mouse)", "setting": "PP2A [1]; [4]", "value": "277.17 and 253.87 and 192.25"}, {"measurement": "Relative Conc. (per mouse, to vehicle)", "setting": "PP2A [1]; [4]", "value": "0.62 and 0.57 and 0.43"}, {"measurement": "Relative PP2A Activity (per mouse, vehicle = 100)", "setting": "PP2A [1]; [4]", "value": "62.36 and 57.11 and 43.25"}, {"measurement": "Average Conc. (group of 3 mice)", "setting": "PP2A [1]; [5]", "value": 423.92}, {"measurement": "Average Relative Activity (group, vehicle = 100)", "setting": "PP2A [1]; [5]", "value": 100.94}, {"measurement": "Conc. (phosphate, single reading, per mouse)", "setting": "PP2A [1]; [5]", "value": "430.64 and 449.36 and 437.61 and 446.75 and 521.21 and 530.8"}, {"measurement": "Mean Conc. (per mouse)", "setting": "PP2A [1]; [5]", "value": "440 and 442.18 and 526"}, {"measurement": "Mean Conc. less IgG blank (per mouse)", "setting": "PP2A [1]; [5]", "value": "394.52 and 396.7 and 480.53"}, {"measurement": "Relative Conc. (per mouse, to vehicle)", "setting": "PP2A [1]; [5]", "value": "0.94 (2×) and 1.14"}, {"measurement": "Relative PP2A Activity (per mouse, vehicle = 100)", "setting": "PP2A [1]; [5]", "value": "93.94 and 94.46 and 114.42"}, {"measurement": "Average Conc. (group of 3 mice)", "setting": "PP2A [1]; [6]", "value": 307.58}, {"measurement": "Average Relative Activity (group, vehicle = 100)", "setting": "PP2A [1]; [6]", "value": 69.2}, {"measurement": "Conc. (phosphate, single reading, per mouse)", "setting": "PP2A [1]; [6]", "value": "260.81 and 279.97 and 333.1 and 357.92 and 428.03 and 458.51"}, {"measurement": "Mean Conc. (per mouse)", "setting": "PP2A [1]; [6]", "value": "270.39 and 345.51 and 443.27"}, {"measurement": "Mean Conc. less IgG blank (per mouse)", "setting": "PP2A [1]; [6]", "value": "224.91 and 300.03 and 397.79"}, {"measurement": "Relative Conc. (per mouse, to vehicle)", "setting": "PP2A [1]; [6]", "value": "0.51 and 0.67 and 0.89"}, {"measurement": "Relative PP2A Activity (per mouse, vehicle = 100)", "setting": "PP2A [1]; [6]", "value": "50.6 and 67.5 and 89.49"}, {"measurement": "Average Conc. (group of 3 mice)", "setting": "PP2A [2]; [7]", "value": 2166.08}, {"measurement": "Average Relative Activity (group, vehicle = 100)", "setting": "PP2A [2]; [7]", "value": 87.89}, {"measurement": "Conc. (phosphate, single reading, per mouse)", "setting": "PP2A [2]; [7]", "value": "3168.39 and 2285.85 and 2334.84 and 1781.17 and 1662.47 and 1991.94"}, {"measurement": "Mean Conc. (per mouse)", "setting": "PP2A [2]; [7]", "value": "2310.34 and 1721.82 and 2580.16"}, {"measurement": "Mean Conc. less IgG blank (per mouse)", "setting": "PP2A [2]; [7]", "value": "2272.32 and 1683.79 and 2542.14"}, {"measurement": "Relative Conc. (per mouse, to vehicle)", "setting": "PP2A [2]; [7]", "value": "1.05 and 0.78 and 1.17"}, {"measurement": "Relative PP2A Activity (per mouse, vehicle = 100)", "setting": "PP2A [2]; [7]", "value": "92.20 and 68.32 and 103.14"}, {"measurement": "Average Conc. (group of 3 mice)", "setting": "PP2A [2]; [8]", "value": 2082.71}, {"measurement": "Average Relative Activity (group, vehicle = 100)", "setting": "PP2A [2]; [8]", "value": 74.99}, {"measurement": "Conc. (phosphate, single reading, per mouse)", "setting": "PP2A [2]; [8]", "value": "1999.47 and 1945.40 and 1958.41 and 2142.56 and 2296.42 and 2382.19"}, {"measurement": "Mean Conc. (per mouse)", "setting": "PP2A [2]; [8]", "value": "1972.43 and 2050.48 and 2339.31"}, {"measurement": "Mean Conc. less IgG blank (per mouse)", "setting": "PP2A [2]; [8]", "value": "1934.40 and 2012.45 and 2301.28"}, {"measurement": "Relative Conc. (per mouse, to vehicle)", "setting": "PP2A [2]; [8]", "value": "0.79 and 0.82 and 0.94"}, {"measurement": "Relative PP2A Activity (per mouse, vehicle = 100)", "setting": "PP2A [2]; [8]", "value": "69.65 and 72.46 and 82.86"}, {"measurement": "Average Conc. (group of 3 mice)", "setting": "PP2A [2]; [5]", "value": 1599.57}, {"measurement": "Average Relative Activity (group, vehicle = 100)", "setting": "PP2A [2]; [5]", "value": 64.90}, {"measurement": "Conc. (phosphate, single reading, per mouse)", "setting": "PP2A [2]; [5]", "value": "1332.79 and 1495.39 and 2603.34 and 1925.68 and 1273.84 and 1194.57"}, {"measurement": "Mean Conc. (per mouse)", "setting": "PP2A [2]; [5]", "value": "1414.09 and 2264.51 and 1234.21"}, {"measurement": "Mean Conc. less IgG blank (per mouse)", "setting": "PP2A [2]; [5]", "value": "1376.06 and 2226.48 and 1196.18"}, {"measurement": "Relative Conc. (per mouse, to vehicle)", "setting": "PP2A [2]; [5]", "value": "0.63 and 1.03 and 0.55"}, {"measurement": "Relative PP2A Activity (per mouse, vehicle = 100)", "setting": "PP2A [2]; [5]", "value": "55.83 and 90.34 and 48.53"}, {"measurement": "Average Conc. (group of 3 mice)", "setting": "PP2A [2]; [6]", "value": 1662.31}, {"measurement": "Average Relative Activity (group, vehicle = 100)", "setting": "PP2A [2]; [6]", "value": 59.85}, {"measurement": "Conc. (phosphate, single reading, per mouse)", "setting": "PP2A [2]; [6]", "value": "1514.30 and 1280.55 and 1980.77 and 1880.56 and 1846.62 and 1699.26"}, {"measurement": "Mean Conc. (per mouse)", "setting": "PP2A [2]; [6]", "value": "1397.42 and 1930.66 and 1772.94"}, {"measurement": "Mean Conc. less IgG blank (per mouse)", "setting": "PP2A [2]; [6]", "value": "1359.40 and 1892.63 and 1734.91"}, {"measurement": "Relative Conc. (per mouse, to vehicle)", "setting": "PP2A [2]; [6]", "value": "0.56 and 0.77 and 0.71"}, {"measurement": "Relative PP2A Activity (per mouse, vehicle = 100)", "setting": "PP2A [2]; [6]", "value": "48.95 and 68.15 and 62.47"}]}
